In paper PMC6934184, “Selective DNA-PKcs inhibition extends the therapeutic index of localized radiotherapy and chemotherapy” (The Journal of Clinical Investigation, 2019):

Biological target: T1, SNF1LK2 (Homo sapiens, UniProt Q9H0K1)
T1 construct: purchased Thermo Fisher Scientific (Life Technologies) SelectScreen
Assay: SelectScreen Z'LYTE
Assay type: biochemical
Procedure, shortened: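 SelectScreen broad panel; activity (Z'LYTE, Adapta) plus binding formats. ATP: Km app for CSF1R Z'LYTE; 10 for CAMK1 Adapta. Readout = % per kinase.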

T1 sequence (Q9H0K1 whole entry): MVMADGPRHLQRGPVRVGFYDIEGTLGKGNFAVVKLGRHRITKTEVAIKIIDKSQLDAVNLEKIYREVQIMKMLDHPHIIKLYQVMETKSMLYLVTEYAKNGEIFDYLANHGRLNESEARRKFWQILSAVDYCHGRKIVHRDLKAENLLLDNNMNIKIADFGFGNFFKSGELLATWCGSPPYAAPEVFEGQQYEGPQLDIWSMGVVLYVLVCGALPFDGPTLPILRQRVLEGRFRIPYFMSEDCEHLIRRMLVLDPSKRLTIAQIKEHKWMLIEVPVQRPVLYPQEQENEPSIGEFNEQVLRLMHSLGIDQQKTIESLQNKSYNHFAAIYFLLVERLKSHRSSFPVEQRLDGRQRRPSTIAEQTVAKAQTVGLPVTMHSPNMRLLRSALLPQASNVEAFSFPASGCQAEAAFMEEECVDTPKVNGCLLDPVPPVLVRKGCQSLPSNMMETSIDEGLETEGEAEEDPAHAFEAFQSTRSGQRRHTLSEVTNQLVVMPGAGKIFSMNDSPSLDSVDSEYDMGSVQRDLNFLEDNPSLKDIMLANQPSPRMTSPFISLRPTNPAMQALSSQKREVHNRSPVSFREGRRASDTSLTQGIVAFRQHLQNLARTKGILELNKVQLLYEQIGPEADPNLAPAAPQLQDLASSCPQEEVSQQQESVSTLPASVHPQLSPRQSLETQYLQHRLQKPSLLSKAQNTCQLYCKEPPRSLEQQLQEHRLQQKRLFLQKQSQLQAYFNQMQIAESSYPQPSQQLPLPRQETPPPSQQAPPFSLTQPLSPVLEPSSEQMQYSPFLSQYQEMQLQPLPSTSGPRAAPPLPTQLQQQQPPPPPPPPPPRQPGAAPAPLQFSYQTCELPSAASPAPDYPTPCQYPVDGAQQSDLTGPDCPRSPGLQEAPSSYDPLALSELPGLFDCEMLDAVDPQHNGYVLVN

Question: `CN(C(=O)CN1CCOCC1)c1ccc2sc3c(-c4cccc5c(=O)cc(N6CC7CCC(C6)O7)oc45)cccc3c2c1` [NU5455] was tested. Which inhibition at 1 µM did it give?
Answer: 26.6%
